Reference: ChEMBL document CHEMBL5634158, “From garden to lab: C-3 chemical modifications of tomatidine unveil broad-spectrum ATP synthase inhibitors to combat bacterial resistance” (Eur J Med Chem, 2023)

Assays:
Assay type in all cases: functional
Staphylococcus aureus [1] = test: Antibacterial activity against Staphylococcus aureus ATCC 29213 assessed as reduction in microbial growth incubated for 20 hrs under aerobic condition by CLSI based broth microdilution method
Escherichia coli = test: Antibacterial activity against Escherichia coli ATCC 25922 assessed as reduction in microbial growth incubated for 20 hrs under aerobic condition by CLSI based broth microdilution method
Staphylococcus aureus [2] = test: Antibacterial activity against Staphylococcus aureus ATCC 29213 hemB SCV assessed as reduction in microbial growth incubated for 20 hrs under aerobic condition by CLSI based broth microdilution method

MIC (Staphylococcus aureus [1]) [µg/mL]	MIC (Escherichia coli) [µg/mL]	MIC (Staphylococcus aureus [2]) [µg/mL]	SMILES
32	> 128		C[C@H]1CC[C@]2(NC1)O[C@H]1C[C@H]3[C@@H]4CC[C@H]5CC(NCc6ccco6)CC[C@]5(C)[C@H]4CC[C@]3(C)[C@H]1[C@@H]2C (mixture of isomers)
> 128	> 128		C[C@H]1CC[C@]2(NC1)O[C@H]1C[C@H]3[C@@H]4CC[C@H]5CC(NCc6ccccn6)CC[C@]5(C)[C@H]4CC[C@]3(C)[C@H]1[C@@H]2C (mixture of isomers)
8	> 128		C[C@H]1CC[C@]2(NC1)O[C@H]1C[C@H]3[C@@H]4CC[C@H]5CC(NCc6ccc(O)cc6)CC[C@]5(C)[C@H]4CC[C@]3(C)[C@H]1[C@@H]2C (mixture of isomers)
4	64		C[C@H]1CC[C@]2(NC1)O[C@H]1C[C@H]3[C@@H]4CC[C@H]5CC(NC[C@@H](C)N)CC[C@]5(C)[C@H]4CC[C@]3(C)[C@H]1[C@@H]2C (mixture of isomers)
4	32		C[C@H]1CC[C@]2(NC1)O[C@H]1C[C@H]3[C@@H]4CC[C@H]5CC(NC[C@@H](N)Cc6ccccc6Br)CC[C@]5(C)[C@H]4CC[C@]3(C)[C@H]1[C@@H]2C (mixture of isomers)
32	> 128		C[C@H]1CC[C@]2(NC1)O[C@H]1C[C@H]3[C@@H]4CC[C@H]5CC(NCc6cn(C)cn6)CC[C@]5(C)[C@H]4CC[C@]3(C)[C@H]1[C@@H]2C (mixture of isomers)
4	32		C[C@H]1CC[C@]2(NC1)O[C@H]1C[C@H]3[C@@H]4CC[C@H]5CC(NC[C@H](N)Cc6ccccc6)CC[C@]5(C)[C@H]4CC[C@]3(C)[C@H]1[C@@H]2C (mixture of isomers)
> 128	> 128		C[C@H]1CC[C@]2(NC1)O[C@H]1C[C@H]3[C@@H]4CC[C@H]5CC(NCCO)CC[C@]5(C)[C@H]4CC[C@]3(C)[C@H]1[C@@H]2C (mixture of isomers)
16	> 128		C[C@H]1CC[C@]2(NC1)O[C@H]1C[C@H]3[C@@H]4CC[C@H]5CC(NC[C@@H](N)Cc6cccnc6)CC[C@]5(C)[C@H]4CC[C@]3(C)[C@H]1[C@@H]2C (mixture of isomers)

Second part, the molecule before the results:

SMILES	MIC (Staphylococcus aureus [1]) [µg/mL]	MIC (Escherichia coli) [µg/mL]	MIC (Staphylococcus aureus [2]) [µg/mL]
C[C@H]1CC[C@]2(NC1)O[C@H]1C[C@H]3[C@@H]4CC[C@H]5CC(NC[C@@H](N)Cc6ccccc6C(F)(F)F)CC[C@]5(C)[C@H]4CC[C@]3(C)[C@H]1[C@@H]2C (mixture of isomers)	2	32	0.5
C[C@H]1CC[C@]2(NC1)O[C@H]1C[C@H]3[C@@H]4CC[C@H]5CC(NC[C@H](N)CCc6ccccc6)CC[C@]5(C)[C@H]4CC[C@]3(C)[C@H]1[C@@H]2C (stereo partly specified)	4	32	
C[C@H]1CC[C@]2(NC1)O[C@H]1C[C@H]3[C@@H]4CC[C@H]5CC(NC[C@@H](O)CO)CC[C@]5(C)[C@H]4CC[C@]3(C)[C@H]1[C@@H]2C (mixture of isomers)	64	> 128	
C[C@H]1CC[C@]2(NC1)O[C@H]1C[C@H]3[C@@H]4CC[C@H]5CC(NC[C@@H](N)Cc6cn(C)c7ccccc67)CC[C@]5(C)[C@H]4CC[C@]3(C)[C@H]1[C@@H]2C (mixture of isomers)	2	8	
CCCC(N)(CCC)CNC1CC[C@@]2(C)[C@@H](CC[C@@H]3[C@@H]2CC[C@]2(C)[C@@H]4[C@H](C[C@@H]32)O[C@@]2(CC[C@H](C)CN2)[C@H]4C)C1 (mixture of isomers)	8	> 128	
C[C@H]1CC[C@]2(NC1)O[C@H]1C[C@H]3[C@@H]4CC[C@H]5CC(NCCN6CCNC6=O)CC[C@]5(C)[C@H]4CC[C@]3(C)[C@H]1[C@@H]2C (mixture of isomers)	64	> 128	
C[C@H]1CC[C@]2(NC1)O[C@H]1C[C@H]3[C@@H]4CC[C@H]5CC(NC[C@@H](N)Cc6cccc(Br)c6)CC[C@]5(C)[C@H]4CC[C@]3(C)[C@H]1[C@@H]2C (mixture of isomers)	2	8	
COC(=O)CNC1CC[C@@]2(C)[C@@H](CC[C@@H]3[C@@H]2CC[C@]2(C)[C@@H]4[C@H](C[C@@H]32)O[C@@]2(CC[C@H](C)CN2)[C@H]4C)C1 (mixture of isomers)	> 128	> 128	
C[C@H]1CC[C@]2(NC1)O[C@H]1C[C@H]3[C@@H]4CC[C@H]5CC(NCCNS(C)(=O)=O)CC[C@]5(C)[C@H]4CC[C@]3(C)[C@H]1[C@@H]2C (mixture of isomers)	32	> 128	
C[C@H]1CC[C@]2(NC1)O[C@H]1C[C@H]3[C@@H]4CC[C@H]5CC(NCCNC(=N)N)CC[C@]5(C)[C@H]4CC[C@]3(C)[C@H]1[C@@H]2C (mixture of isomers)	8	64	
C[C@H]1CC[C@]2(NC1)O[C@H]1C[C@H]3[C@@H]4CC[C@H]5CC(NC[C@@H](N)C(c6ccccc6)c6ccccc6)CC[C@]5(C)[C@H]4CC[C@]3(C)[C@H]1[C@@H]2C (mixture of isomers)	4	> 64	
C[C@H]1CC[C@]2(NC1)O[C@H]1C[C@H]3[C@@H]4CC[C@H]5CC(N[C@H]6CCCC[C@@H]6N)CC[C@]5(C)[C@H]4CC[C@]3(C)[C@H]1[C@@H]2C (mixture of isomers)	8	> 128	
C[C@H]1CC[C@]2(NC1)O[C@H]1C[C@H]3[C@@H]4CC[C@H]5CC(NC[C@@H](N)Cc6c[nH]cn6)CC[C@]5(C)[C@H]4CC[C@]3(C)[C@H]1[C@@H]2C (mixture of isomers)	8	32	
C[C@H]1CC[C@]2(NC1)O[C@H]1C[C@H]3[C@@H]4CC[C@H]5CC(NC[C@@H](N)CC6CCCCC6)CC[C@]5(C)[C@H]4CC[C@]3(C)[C@H]1[C@@H]2C (mixture of isomers)	4	16	
C[C@H]1CC[C@]2(NC1)O[C@H]1C[C@H]3[C@@H]4CC[C@H]5CC(NC[C@@H](N)Cc6ccc([N+](=O)[O-])cc6)CC[C@]5(C)[C@H]4CC[C@]3(C)[C@H]1[C@@H]2C (mixture of isomers)	2	64	
C[C@H]1CC[C@]2(NC1)O[C@H]1C[C@H]3[C@@H]4CC[C@H]5CC(NCCN(C)C)CC[C@]5(C)[C@H]4CC[C@]3(C)[C@H]1[C@@H]2C (mixture of isomers)	8	128	
